Values quoted from earlier work as cited in patent publication US20200390743A1, “Methods and Compositions For Improving Outcomes of Cancer Patients” (Reven IP HoldCo LLC, priority 2019, published 2020).

Columns and labels:
[1] = 241 osteoporotic women
[2] = rats, 100 mg/kg body weight daily

CC(C)=CCC/C(C)=C/CC/C(C)=C/CC/C(C)=C/CC1=C(C)C(=O)c2ccccc2C1=O [Vitamin K2]
fracture incidence ([1]; 45 mg/day vitamin K2 and 150 mg elemental calcium, two years, 30% in control group): 10% | lumbar bone mineral density ([1]; 45 mg/day, after two years): maintain | total cholesterol levels, lipid peroxidation, ester cholesterol deposition in the aorta and factor X activity in plasma (compared to the control group): reduce | atherosclerotic plaque progression in the aorta and pulmonary arteries (rabbits, 1-10 mg/kg daily for 10 weeks): inhibited the atherosclerotic plaque progression | calcium in kidneys and aorta induced by megadose of synthetic vitamin D [2]: inhibited the increase in calcium
